According to patent US12629351B2, “HDAC inhibitors for idiopathic pulmonary fibrosis and other lung inflammatory disorders” (COUNCIL OF SCIENTIFIC AND INDUSTRIAL RESEARCH (AN INDIAN …, priority 2020, dated 2026):

Columns and labels:
[1] = test system: NHLF, DHLF and LL29 cells; assay: q-RT-PCR gene expression in TGF-β1 stimulated cells, statements not split by cell line; type: cell-based, human; conditions: for HDAC-8 levels (gene expression): TGF-β1 stimulated, other concentrations
Description: (§1) LL29 cells (lung fibroblasts from IPF patient) were purchased from ATCC and cultured in Ham's F-12K medium supplemented with 15% FBS. Primary lung fibroblasts cells, NHLF and DHLF-IPF cells were purchased from LONZA and cultured in FGF-2 medium with FGF, Insulin and FBS. All the cells were maintained in a humidified atmosphere of 95% air with 5% CO2 at 37° C.
(§2) Cells were pre-treated with HDAC-inhibitors (COMPOUND-109, COMPOUND-108 and COMPOUND-107) for 2 hours in serum free media and then human recombinant TGF-β (R&D Systems, Minneapolis, MN) was added at a concentration of 5 ng/mL and cultured for 72 hours for all the experiments.
(§3) RNA isolation was carried out using Trizol as described^12,13. RNA was isolated using Trizol-chloroform method and total RNA was quantified using nano-drop, 1 μg of RNA was used for cDNA synthesis using primescript cDNA synthesis kit (Takara bio) according to manufacturer's instructions. Primers for EMT (Fibronectin1 (FN1), Vimentin, α-SMA and Snail) markers, ECM markers (Timp1, Timp3 and LoxL2), Collagen markers (Collagen 1α1 (Col1) and Collagen 3α1[…] and housekeeping markers (β2M and β-actin) were designed using Primer 3 software and all primer sequences were listed in Table 1. Real time quantitative PCR (qRT-PCR) was carried out using SYBR green master mix and the differences in mRNA expression of all the gene levels were calculated as the fold change using the formula 2-ΔΔct. In all Q-RT-PCR data plots, vehicle control fold change was normalized to 1.

NHLF cells = assay: q-RT-PCR gene expression in TGF-β1 stimulated NHLF cells; type: cell-based, human
Description: as §1, §2, §3

LL29 cells = assay: q-RT-PCR gene expression in TGF-β1 stimulated LL29 cells; type: cell-based, human
Description: as §1, §2, §3

[2] = test system: BLM-induced pulmonary fibrosis; assay: Bleomycin (BLM) induced pulmonary fibrosis model; type: in vivo, Wistar rats; conditions: for ALP levels / LDH levels: BALF, oral, daily for 14 days; for BLM induced thickened alveolar walls, inflammatory cells infiltration, deposition of collagen fibers (histopathology): H&E (Fibrosis score) and Masson's staining (Ashcroft score), compared BLM alone group; for BLM-induced inflammation, fibrotic marker expression and pathological changes in lung tissues: collective in-vivo conclusion
Description: as §3
Adult female Wistar rats (180-200 g, n=50) at the age of 8-10 weeks were used to develop bleomycin induced pulmonary fibrosis model. All animals were kept under constant environmental and nutritional conditions throughout the experimental period. The research protocol complies with the ethical guidelines of experimental research; “Institutional Animal Ethics Committee” (CPSCEA Registration No. 97/GO/RBi/S/1999/CPCSEA and study approval No. IICT/056/2019), CSIR-IICT, Hyderabad.
Except 8 animals (Sham control), pulmonary fibrosis was induced in remaining all animals (32 Wistar rats) by intratracheal instillation of BLM (5 mg/kg) as sulfate salt dissolved in 1 mL of normal saline. Rats were anesthetized using ketamine and xylazine (80 mg/kg and 15 mg/kg respectively as per body weight, I.P.). BLM was administered intratracheally into the lungs of the rats.
Pulmonary fibrosis was induced by a single intratracheal instillation of BLM (5 mg/kg) to the set of animals (n=40) excluding sham control animals (n=8)^14. BLM was dissolved in saline to attain the concentration of 5 mg/ml. Animals were anesthetized with ketamine (80 mg/kg) and xylazine (10 mg/kg). BLM was administered intratracheal (5 mg/kg) to the anesthetized Wistar rats and saline was administered intratracheally in to sham control animals. […] Further, these animals were randomized into four groups (as described in Table-2) apart from sham control (8 rats/group).
As described in the grouping pattern Table 2 and 3, animals were grouped and administered the compounds orally in the form of gum-acacia suspension (0.25%) daily for 14 days. Sham control (without bleomycin) animals were used as a control for bleomycin control (disease control) and administered everyday 0.5 mL of saline for 14 days orally. After the treatment period, BALF fluid was collected from 4 animals in each group and lungs were collected from another 4 animals for ex-vivo experiments and histopathological observations.
(§4) In 4 animals from each group, the thoracic cavity was opened and the tracheas were exposed, cannulated and 3 mL sterile 0.9% saline was slowly infused into the lungs. BALF was centrifuged at 2000 rpm, 4 ° C. for 10 min using cooling centrifuge. The sedimented cell pellets were pooled and re-suspended in 500 μl of sterile saline to quantify inflammatory cell counts; supernatant BLAF was examined for ALP and LDH parameters using auto-analyzer.
Collagen deposition was determined by measuring the total hydroxyproline content in wet lung tissue, which was measured by a hydroxyproline assay kit (abcam), according to the manufacturer's protocol. In brief, lungs were homogenized in sterile distilled water, alkalized using 10N NaOH and heated at 120° C. for 1 hour. Following alkaline hydrolysis samples were neutralized using 10N concentrated HCL. Then samples were into 96 well plate along with standards and kept for evaporation at 65° C. Then samples were oxidized by adding oxidation mixture followed by addition of developer and incubated at 37° C. for 5 min. […]

LPS induced ARDS = LPS induced ARDS model; type: in vivo, SD rats
Description: as §3
Treatment group animals were treated with HDACi (COMPOUND-108) for 7 days at the doses of (1.5 mg/kg and 3 mg/kg), after the treatment period animals were subjected to ARDS instillation by intratracheally. Rats were anesthetized using ketamine and xylazine (80 mg/kg and 20 mg/kg, respectively as per body weight, I.P.). Except 8 animals (Sham control), ARDS was induced in remaining all animals (24 SD rats) by intratracheal instillation of Lipopolysachharide (5 mg/kg) dissolved in normal saline.
as §4
A portion of the pulmonary lobe was harvested, rinsed with ice-cold phosphate buffer saline, and fixed with 10% neutral-buffered formalin, embedded in paraffin wax, sectioned (6 μm) and stained with H&E and Masson's trichrome. Three serial slices of 3 μm thickness each 50 μm apart of both lung lobes were stained with Masson's Trichrome. The slides were analyzed with a microscope in a random order using an (10×) objective. The severity of fibrosis and alveolitis in lung tissues (using H&E and Masson's trichrome staining) was semi-quantitatively assessed by a pathologist in a blinded fashion via Ashcroft scoring system^15. The structural alterations of tissue were assessed based on the degree haemorrhage, emphysema, alveolar wall thickening, inflammatory lesions and collagen deposition or fibrosis^16.

Structure (SMILES) | HDAC-8 levels (gene expression) [1] | HDAC-6 mRNA levels ([1]; summary of Example 2) | vimentin levels (NHLF cells) | α-SMA levels (NHLF cells) | vimentin levels (LL29 cells) | α-SMA levels (LL29 cells) | ALP levels [2] | LDH levels [2] | BLM induced thickened alveolar walls, inflammatory cells infiltration, deposition of collagen fibers (histopathology) [2] | BLM-induced inflammation, fibrotic marker expression and pathological changes in lung tissues [2] | other results
Cn1cc(-c2cc(O)cc(F)c2)c2cc(NS(=O)(=O)c3ccc(C(=O)NO)cc3)ccc21 [COMPOUND-107, 4-(N-(3-(3-fluoro-5-hydroxyphenyl)-1-methyl-1H-indol-5-yl)sulfamoyl)-N-hydroxyl benzamide] | did not modulate | could inhibit only HDAC-6 mRNA levels | highly reduced | highly reduced | highly reduced | highly reduced | – | – | – | – | Snail levels (LL29 cells; 10 and 20 μM): highly down-regulated
Cn1cc(-c2cccc(Cl)c2)c2cc(NS(=O)(=O)c3ccc(C(=O)NO)cc3)ccc21 [COMPOUND-108, 4-(N-(3-(3-chlorophenyl)-1-methyl-1H-indol-5-yl)sulfamoyl)-N-hydroxybenzamide] | did not modulate | potentially inhibits | highly reduced | highly reduced | highly reduced | highly reduced | reduced in dose dependently | reduced in dose dependently | reduced | could effectively protect | HDAC-8 mRNA levels ([1]; summary of Example 2): potentially inhibits; fibrotic alterations in BLM challenged rat lung tissues ([2]; statement in embodiment): most effectively ameliorated; HDAC-8 levels (gene expression) (NHLF cells; 2.5 μM): reduced; lung injury and infiltration of inflammatory cells (histopathology) (LPS induced ARDS; 1.5 mg/kg): significant (p<0.01) reduction; LPS induced Neutrophil count in blood (LPS induced ARDS; 3 mg/kg): significantly attenuated; lung injury and infiltration of inflammatory cells (histopathology) (LPS induced ARDS; 3 mg/kg): significant (p<0.01) reduction; plasma IL-6 Levels (LPS induced ARDS; 3 mg/kg, at both the time points): reduced; LPS induced infiltration of Neutrophils (LPS induced ARDS; BALF): significantly attenuated; LPS induced infiltration of WBC (LPS induced ARDS; BALF): significantly attenuated; LPS induced expression of inflammatory markers (IL-6, IL-1β, CCl2, Cox-2, CXCL-6, CCL-7, CXCL-1, CXCL-10) (LPS induced ARDS; lung tissues, mRNA, dose dependent manner): significantly attenuated; LPS induced inflammatory marker's expression (CXCL-11, TLR-3 and INF-γ) (LPS induced ARDS; lung tissues, mRNA, in dose dependent manner): significantly attenuated; pathological consequences (LPS induced), H&E (LPS induced ARDS; pre-treatment at 1.5 and 3 mg/kg doses): remarkably repressed; LPS induced Lung volume (index) (LPS induced ARDS; rat, in vivo): significantly attenuated; LPS induced spleen Indices (LPS induced ARDS; rat, in vivo): significantly attenuated; lung pathological conditions (LPS induced ARDS; statement in embodiment): most effectively ameliorated; HDAC-8 levels (gene expression) (LL29 cells; 2.5 μM): reduced; Snail levels (LL29 cells; 5 and 10 μM): highly down-regulated
CCOc1ccc(-c2cn(C)c3ccc(NS(=O)(=O)c4ccc(C(=O)NO)cc4)cc23)cn1 [COMPOUND-109, 4-(N-(3-(6-ethoxypyridin-3-yl)-1-methyl-1H-indol-5-yl)sulfamoyl)-N-hydroxy benzamide] | did not modulate | could inhibit only HDAC-6 mRNA levels | not modulated | highly reduced | not modulated | highly reduced | reduced in dose dependently | reduced in dose dependently | reduced | could effectively protect | –
